For one assay, the target named is T1, HiBit-BRM fusion protein (Homo sapiens, UniProt P51531).
T1 construct: expressed in transfected cells
The assay can be described thus: HiBiT-BRM cell-based degradation assay (Nano-Glo HiBiT Lytic Detection). The conditions noted are these: stable HeLa cell line expressing HiBiT-BRM, 24 h incubation; for BRM HiBit Degradation Maximum (%): top dose 30 μM; for DC50: read-out: BRM HiBit Degradation IC50. The method, then: (§1) Procedure: A stable HeLa cell line expressing HiBiT-BRM was generated. On day 0, 5000 cells were seeded in 40 μL of media into each well of 384-well cell culture plates. On day 1, cells were treated with 120 nL DMSO or 120 nL of 3-fold serially DMSO-diluted compounds (10 points in duplicate with 30 μM as final top dose). Subsequently plates were incubated for 24 h in a standard tissue culture incubator and equilibrated at room temperature for 15 minutes. Nano-Glo HiBiT Lytic Detection System (Promega N3050) reagent was freshly prepared and 20 ul was added to each well. Upon addition of this LgBit-containing reagent, the HiBiT and LgBiT proteins associate to form the luminescent NanoBiT luciferase. The plates were shaken for 10 minutes at room temperature and the bioluminescence read using an EnVision plate reader (PerkinElmer).
(§2) The degradation % was calculated using the following formula: % degradation=100%−100%×(LumSample−LumLC)/(LumHC−LumLC). DMSO treated cells are employed as High Control (HC) and 2 μM of a known BRM/BRG1 degrader standard treated cells are employed as Low Control (LC).
In general terms: With HiBiT, luminescence reflects the tagged protein that the partner subunit can reach.

The target of assay [1] is T2, HiBit-BRG1 fusion protein (Homo sapiens, UniProt P51532).
T2 construct: expressed in transfected cells
Kind of assay: HiBiT-BRG1 cell-based degradation assay (Nano-Glo HiBiT Lytic Detection). The conditions noted are these: stable HeLa cell line expressing HiBit-BRG1 and LgBit, 24 h incubation; for Dmax: top dose 30 μM, read-out: BRG1 HiBit Degradation Maximum (%); for DC50: read-out: BRMG1 HiBit Degradation IC50. The procedure: as §1
For measurement of BRG1 degradation, a stable HeLa cell line expressing HiBit-BRG1 and LgBit was generated. The same protocol as above was then followed.
as §2

The record followed here is patent US20240376121A1, “COMPOUNDS AND USES THEREOF” (Foghorn Therapeutics Inc., priority 2021, published 2024).

T2 sequence (P51532 whole entry, the tested form may be a part): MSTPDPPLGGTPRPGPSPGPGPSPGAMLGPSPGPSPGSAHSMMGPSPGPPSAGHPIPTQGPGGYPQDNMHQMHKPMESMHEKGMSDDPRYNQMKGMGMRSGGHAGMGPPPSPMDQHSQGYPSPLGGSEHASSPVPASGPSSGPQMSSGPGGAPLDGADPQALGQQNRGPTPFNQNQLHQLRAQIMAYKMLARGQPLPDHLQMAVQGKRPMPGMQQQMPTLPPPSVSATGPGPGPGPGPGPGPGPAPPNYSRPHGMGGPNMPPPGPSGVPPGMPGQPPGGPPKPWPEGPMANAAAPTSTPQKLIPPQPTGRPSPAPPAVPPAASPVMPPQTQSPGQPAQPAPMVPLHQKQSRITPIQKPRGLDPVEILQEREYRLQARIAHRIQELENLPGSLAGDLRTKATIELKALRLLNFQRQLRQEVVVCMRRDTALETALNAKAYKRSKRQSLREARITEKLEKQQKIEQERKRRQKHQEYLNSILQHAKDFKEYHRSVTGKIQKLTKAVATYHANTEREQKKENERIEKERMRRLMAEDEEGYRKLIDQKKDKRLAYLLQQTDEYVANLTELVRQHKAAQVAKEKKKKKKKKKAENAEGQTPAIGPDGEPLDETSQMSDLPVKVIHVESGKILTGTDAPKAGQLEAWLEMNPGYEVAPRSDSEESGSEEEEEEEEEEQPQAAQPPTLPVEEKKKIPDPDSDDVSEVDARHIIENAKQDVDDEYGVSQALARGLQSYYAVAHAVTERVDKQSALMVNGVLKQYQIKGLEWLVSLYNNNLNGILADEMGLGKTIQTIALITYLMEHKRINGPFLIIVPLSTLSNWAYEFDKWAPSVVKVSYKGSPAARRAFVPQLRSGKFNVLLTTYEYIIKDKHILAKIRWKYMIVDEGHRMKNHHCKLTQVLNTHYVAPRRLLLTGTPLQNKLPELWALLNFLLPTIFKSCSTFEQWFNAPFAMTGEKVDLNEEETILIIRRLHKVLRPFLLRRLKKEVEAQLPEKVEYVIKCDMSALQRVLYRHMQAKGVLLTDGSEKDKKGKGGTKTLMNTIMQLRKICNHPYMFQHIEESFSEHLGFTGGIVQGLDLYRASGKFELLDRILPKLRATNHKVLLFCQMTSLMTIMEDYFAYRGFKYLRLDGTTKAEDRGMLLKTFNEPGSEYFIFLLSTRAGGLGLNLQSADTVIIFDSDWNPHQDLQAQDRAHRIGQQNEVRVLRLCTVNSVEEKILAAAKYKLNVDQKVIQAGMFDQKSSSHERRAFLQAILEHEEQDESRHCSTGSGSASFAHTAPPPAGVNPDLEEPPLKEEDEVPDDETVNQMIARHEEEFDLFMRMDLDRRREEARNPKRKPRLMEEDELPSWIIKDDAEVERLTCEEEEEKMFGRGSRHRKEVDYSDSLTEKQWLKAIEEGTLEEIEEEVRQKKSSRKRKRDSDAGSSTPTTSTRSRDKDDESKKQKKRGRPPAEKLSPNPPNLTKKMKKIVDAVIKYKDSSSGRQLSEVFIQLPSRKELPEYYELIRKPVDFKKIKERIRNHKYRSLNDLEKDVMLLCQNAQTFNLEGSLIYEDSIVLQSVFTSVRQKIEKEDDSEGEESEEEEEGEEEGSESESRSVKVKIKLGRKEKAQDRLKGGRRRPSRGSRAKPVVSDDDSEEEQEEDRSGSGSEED
T1 sequence (P51531 whole entry, the tested form may be a part): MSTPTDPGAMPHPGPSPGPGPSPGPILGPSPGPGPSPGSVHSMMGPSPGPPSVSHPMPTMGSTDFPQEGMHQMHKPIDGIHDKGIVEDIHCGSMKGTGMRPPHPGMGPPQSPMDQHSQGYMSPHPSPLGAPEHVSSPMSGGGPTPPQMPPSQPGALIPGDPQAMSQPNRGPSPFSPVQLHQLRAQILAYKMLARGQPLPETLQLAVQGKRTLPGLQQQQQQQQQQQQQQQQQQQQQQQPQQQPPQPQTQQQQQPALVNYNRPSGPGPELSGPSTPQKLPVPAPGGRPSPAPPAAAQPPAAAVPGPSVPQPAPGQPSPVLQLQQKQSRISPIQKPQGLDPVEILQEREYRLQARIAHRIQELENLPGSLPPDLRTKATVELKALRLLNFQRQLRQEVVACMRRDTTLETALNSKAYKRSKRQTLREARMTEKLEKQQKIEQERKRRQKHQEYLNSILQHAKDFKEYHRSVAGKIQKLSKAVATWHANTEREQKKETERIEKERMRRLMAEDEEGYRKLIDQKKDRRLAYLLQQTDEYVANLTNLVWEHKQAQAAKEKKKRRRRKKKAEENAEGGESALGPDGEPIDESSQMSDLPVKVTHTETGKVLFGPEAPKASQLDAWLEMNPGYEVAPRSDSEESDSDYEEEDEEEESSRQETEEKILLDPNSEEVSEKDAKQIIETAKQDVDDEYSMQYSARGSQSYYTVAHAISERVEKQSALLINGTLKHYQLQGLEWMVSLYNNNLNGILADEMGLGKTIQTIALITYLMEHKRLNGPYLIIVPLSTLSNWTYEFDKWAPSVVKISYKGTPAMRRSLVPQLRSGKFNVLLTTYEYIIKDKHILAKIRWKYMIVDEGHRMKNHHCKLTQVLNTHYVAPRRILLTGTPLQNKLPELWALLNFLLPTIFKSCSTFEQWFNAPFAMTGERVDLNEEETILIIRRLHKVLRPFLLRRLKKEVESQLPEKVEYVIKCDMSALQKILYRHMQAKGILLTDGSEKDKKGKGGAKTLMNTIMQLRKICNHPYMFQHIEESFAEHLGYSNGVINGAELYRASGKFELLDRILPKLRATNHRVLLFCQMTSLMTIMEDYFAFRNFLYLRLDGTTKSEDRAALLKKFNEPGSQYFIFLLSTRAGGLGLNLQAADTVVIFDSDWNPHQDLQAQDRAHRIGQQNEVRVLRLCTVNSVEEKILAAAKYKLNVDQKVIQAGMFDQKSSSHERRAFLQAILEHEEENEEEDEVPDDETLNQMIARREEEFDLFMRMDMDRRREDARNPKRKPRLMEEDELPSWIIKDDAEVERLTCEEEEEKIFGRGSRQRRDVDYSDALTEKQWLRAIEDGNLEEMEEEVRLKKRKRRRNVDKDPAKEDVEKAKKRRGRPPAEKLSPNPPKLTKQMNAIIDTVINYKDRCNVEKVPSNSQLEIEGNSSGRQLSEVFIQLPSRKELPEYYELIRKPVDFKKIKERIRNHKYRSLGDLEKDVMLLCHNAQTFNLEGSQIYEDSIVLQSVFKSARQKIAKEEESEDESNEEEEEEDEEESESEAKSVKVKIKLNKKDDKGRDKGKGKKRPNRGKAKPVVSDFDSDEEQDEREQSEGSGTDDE

On to `Cc1ncsc1-c1ccc([C@H](C)NC(=O)[C@@H]2C[C@@H](O)CN2C(=O)[C@@H](c2cc(OCCN3CCC(c4sc5nnc(-c6ccccc6O)cc5c4C)CC3)no2)C(C)C)cc1` [Compound 8, (2S,4R)-4-hydroxy-1-[(2R)-2-[3-(2-{4-[3-(2-hydroxyphenyl)-5-methylthieno[2,3-c]pyridazin-6-yl]piperidin-1-yl}ethoxy)-1,2-oxazol-5-yl]-3-methylbutanoyl]-N-[(1S)-1-[4-(4-methyl-1,3-thiazol-5-yl)phenyl]ethyl]pyrrolidine-2-carboxamide], for which, on HiBit-BRM fusion protein, the “BRM HiBit Degradation Maximum (%)” value is recorded as “A (“A” indicates maximum degradation ≥ 75%)” and the DC50 was under 10 nM. Moreover, in assay [1], the Dmax was under 50% and the DC50 was at least 1000 nM.

Regarding `Cc1ncsc1-c1ccc([C@H](C)NC(=O)[C@@H]2C[C@@H](O)CN2C(=O)[C@@H](c2cc(OCCN3CC4CC3CC4c3cc4cc(-c5ccccc5O)nnc4s3)no2)C(C)C)cc1` (stereo partly drawn) [Compound 67, (2S,4R)-4-hydroxy-1-((2R)-2-(3-(2-(5-(3-(2-hydroxyphenyl)thieno[2,3-c]pyridazin-6-yl)-2-azabicyclo[2.2.1]heptan-2-yl)ethoxy)isoxazol-5-yl)-3-methylbutanoyl)-N-((S)-1-(4-(4-methylthiazol-5-yl)phenyl)ethyl)pyrrolidine-2-carboxamide], at HiBit-BRM fusion protein, the “BRM HiBit Degradation Maximum (%)” value is “A (“A” indicates maximum degradation ≥ 75%)” and the DC50 was at least 100 nM. In assay [1], the Dmax was under 50% and the DC50 is at least 1000 nM.

For `Cc1ncsc1-c1ccc([C@H](C)NC(=O)[C@@H]2C[C@@H](O)CN2C(=O)[C@@H](c2cc(O[C@H]3C[C@@H](N4CCC(c5sc6nnc(-c7ccccc7O)cc6c5C)CC4)C3)no2)C(C)C)cc1` [Compound 61, (2S,4R)-4-hydroxy-1-((R)-2-(3-((1s,3S)-3-(4-(3-(2-hydroxyphenyl)-5-methylthieno[2,3-c]pyridazin-6-yl)piperidin-1-yl)cyclobutoxy)isoxazol-5-yl)-3-methylbutanoyl)-N-((S)-1-(4-(4-methylthiazol-5-yl)phenyl)ethyl)pyrrolidine-2-carboxamide], at HiBit-BRM fusion protein, the “BRM HiBit Degradation Maximum (%)” value was “C (“C” indicates maximum degradation < 50%)” and the DC50 is at least 1000 nM. In addition, in assay [1], the Dmax was under 50% and the DC50 was at least 1000 nM.

For `Cc1ncsc1-c1ccc([C@H](C)NC(=O)[C@@H]2C[C@@H](O)CN2C(=O)[C@@H](c2cc(N3CCC(C(=O)N4CCC(c5sc6nnc(-c7ccccc7O)cc6c5C)CC4)CC3)no2)C(C)C)cc1` [Compound 98, (2S,4R)-4-hydroxy-1-((R)-2-(3-(4-(4-(3-(2-hydroxyphenyl)-5-methylthieno[2,3-c]pyridazin-6-yl)piperidine-1-carbonyl)piperidin-1-yl)isoxazol-5-yl)-3-methylbutanoyl)-N-((S)-1-(4-(4-methylthiazol-5-yl)phenyl)ethyl)pyrrolidine-2-carboxamide], at HiBit-BRM fusion protein, the “BRM HiBit Degradation Maximum (%)” value was “A (“A” indicates maximum degradation ≥ 75%)” and the DC50 is under 10 nM. In addition, in assay [1], the Dmax is at least 50% and the DC50 is at least 1000 nM.

As to `Cc1ncsc1-c1ccc([C@H](C)NC(=O)[C@@H]2C[C@@H](O)CN2C(=O)[C@@H](c2cc(OCCN[C@@H]3CCc4sc5nnc(-c6ccccc6O)cc5c4C3)no2)C(C)C)cc1` [Compound 40, (2S,4R)-4-hydroxy-1-((R)-2-(3-(2-(((R)-3-(2-hydroxyphenyl)-5,6,7,8-tetrahydrobenzo[4,5]thieno[2,3-c]pyridazin-6-yl)amino)ethoxy)isoxazol-5-yl)-3-methylbutanoyl)-N—((S)-1-(4-(4-methylthiazol-5-yl)phenyl)ethyl)pyrrolidine-2-carboxamide], on HiBit-BRM fusion protein, the “BRM HiBit Degradation Maximum (%)” value is reported as “C (“C” indicates maximum degradation < 50%)” and the DC50 was at least 1000 nM. In assay [1], the Dmax is under 50% and the DC50 is at least 1000 nM.

With `Cc1ncsc1-c1ccc(CNC(=O)[C@@H]2C[C@@H](O)CN2C(=O)[C@@H](NC(=O)CCCCC(=O)N2CCC(c3cc4nnc(-c5ccccc5O)cc4s3)CC2)C(C)(C)C)cc1` [Compound 84, (2S,4R)-4-hydroxy-1-((S)-2-(6-(4-(3-(2-hydroxyphenyl)thieno[3,2-c]pyridazin-6-yl)piperidin-1-yl)-6-oxohexanamido)-3,3-dimethylbutanoyl)-N-(4-(4-methylthiazol-5-yl)benzyl)pyrrolidine-2-carboxamide], on HiBit-BRM fusion protein, the “BRM HiBit Degradation Maximum (%)” value is reported as “C (“C” indicates maximum degradation < 50%)” and the DC50 is at least 100 nM. In addition, in assay [1], the Dmax was under 50% and the DC50 was at least 1000 nM.

For the compound `Cc1ncsc1-c1ccc([C@H](C)NC(=O)[C@@H]2C[C@@H](O)CN2C(=O)[C@@H](c2cc(OCCN3CCC(c4sc5nnc(-c6ccccc6O)cc5c4Cl)CC3)no2)C(C)C)cc1` [Compound 90, (2S,4R)-1-((R)-2-(3-(2-(4-(5-chloro-3-(2-hydroxyphenyl)thieno[2,3-c]pyridazin-6-yl)piperidin-1-yl)ethoxy)isoxazol-5-yl)-3-methylbutanoyl)-4-hydroxy-N-((S)-1-(4-(4-methylthiazol-5-yl)phenyl)ethyl)pyrrolidine-2-carboxamide], on HiBit-BRM fusion protein, the “BRM HiBit Degradation Maximum (%)” value is on record as “A (“A” indicates maximum degradation ≥ 75%)” and the DC50 was at least 10 nM. In assay [1], the Dmax was under 50% and the DC50 was at least 1000 nM.

Consider `Cc1ncsc1-c1ccc([C@H](C)NC(=O)[C@@H]2C[C@@H](O)CN2C(=O)[C@@H](c2cc(C34CC(CN5CCC(c6sc7nnc(-c8ccccc8O)cc7c6C)CC5)(C3)C4)no2)C(C)C)cc1` [Compound 72, (2S,4R)-4-hydroxy-1-[(2R)-2-{3-[3-({4-[3-(2-hydroxyphenyl)-5-methylthieno[2,3-c]pyridazin-6-yl]piperidin-1-yl}methyl)bicyclo[1.1.1]pentan-1-yl]-1,2-oxazol-5-yl}-3-methylbutanoyl]-N-[(1S)-1-[4-(4-methyl-1,3-thiazol-5-yl)phenyl]ethyl]pyrrolidine-2-carboxamide], for which, on HiBit-BRM fusion protein, the “BRM HiBit Degradation Maximum (%)” value is “A (“A” indicates maximum degradation ≥ 75%)” and the DC50 is under 10 nM. Also, in assay [1], the Dmax was at least 75% and the DC50 was at least 10 nM.

As for `Cc1ncsc1-c1ccc([C@H](C)NC(=O)[C@@H]2C[C@@H](O)CN2C(=O)[C@@H](c2cc(OCCN3CCC(c4sc5nnc(-c6ccccc6O)cc5c4F)CC3)no2)C(C)C)cc1` [Compound 68, (2S,4R)-1-((R)-2-(3-(2-(4-(5-fluoro-3-(2-hydroxyphenyl)thieno[2,3-c]pyridazin-6-yl)piperidin-1-yl)ethoxy)isoxazol-5-yl)-3-methylbutanoyl)-4-hydroxy-N-((S)-1-(4-(4-methylthiazol-5-yl)phenyl)ethyl)pyrrolidine-2-carboxamide], on HiBit-BRM fusion protein, the “BRM HiBit Degradation Maximum (%)” value is listed as “B (“B” indicates maximum degradation ≥ 50%)” and the DC50 is at least 100 nM. In addition, in assay [1], the Dmax is under 50% and the DC50 was at least 1000 nM.

Turning to `Cc1ncsc1-c1ccc([C@H](C)NC(=O)[C@@H]2C[C@@H](O)CN2C(=O)[C@@H](c2cc(OCCN3CC(Cc4sc5nnc(-c6ccccc6O)cc5c4C)C3)no2)C(C)C)cc1` [Compound 16], on HiBit-BRM fusion protein, the “BRM HiBit Degradation Maximum (%)” value was “A (“A” indicates maximum degradation ≥ 75%)” and the DC50 is at least 10 nM. Besides, in assay [1], the Dmax was under 50% and the DC50 was at least 1000 nM.

Consider `Cc1ncsc1-c1ccc([C@H](C)NC(=O)[C@@H]2C[C@@H](O)CN2C(=O)[C@@H](c2cc(OCCN3CCc4sc5nnc(-c6ccccc6O)cc5c4C3)no2)C(C)C)cc1` [Compound 109, (2S,4R)-4-hydroxy-1-((R)-2-(3-(2-(3-(2-hydroxyphenyl)-7,8-dihydropyrido[3′,4′:4,5]thieno[2,3-c]pyridazin-6(5H)-yl)ethoxy)isoxazol-5-yl)-3-methylbutanoyl)-N-((S)-1-(4-(4-methylthiazol-5-yl)phenyl)ethyl)pyrrolidine-2-carboxamide], for which, at HiBit-BRM fusion protein, the “BRM HiBit Degradation Maximum (%)” value is listed as “C (“C” indicates maximum degradation < 50%)” and the DC50 is at least 1000 nM. For the same compound, in assay [1], the Dmax is under 50% and the DC50 is at least 1000 nM.

Turning to `Cc1ncsc1-c1ccc(CNC(=O)[C@@H]2C[C@@H](O)CN2C(=O)[C@@H](NC(=O)CCCC(=O)N2CCC(c3cc4nnc(-c5ccccc5O)cc4s3)CC2)C(C)(C)C)cc1` [Compound 80, (2S,4R)-4-hydroxy-1-((S)-2-(5-(4-(3-(2-hydroxyphenyl)thieno[3,2-c]pyridazin-6-yl)piperidin-1-yl)-5-oxopentanamido)-3,3-dimethylbutanoyl)-N-(4-(4-methylthiazol-5-yl)benzyl)pyrrolidine-2-carboxamide], at HiBit-BRM fusion protein, the “BRM HiBit Degradation Maximum (%)” value is reported as “B (“B” indicates maximum degradation ≥ 50%)” and the DC50 was at least 100 nM. In assay [1], the Dmax was under 50% and the DC50 is at least 1000 nM.
